Reference: patent US9783518B2, “Therapeutic agent and treatment method for ameliorating uremia” (Toray Industries, Inc., priority 2005, dated 2017)

Legend:
[1] = test system: patients with renal failure; settings: renal failure in conservative stage; cited from earlier work
[2] = test system: patients with diabetic nephropathy; settings: cited from earlier work
cats with renal failure = assay: Body weight of cats with renal failure during administration; assay type: in vivo, cat
Method: (§1) […] The administration was conducted every day and continued basically for 6 months, and in cases where the owner desired, the administration was continued even after the test period. The Examples of the present invention include both cases where the dosing period was less than 6 months and more than 6 months.

[3] = test system: cats with chronic renal failure; assay: Adverse events during treatment of cats with chronic renal failure; assay type: in vivo, cat
Method: This pilot clinical test was performed after obtaining informed consent of the owners of the cats (clients) before the start of the test, wherein the clients received explanations about the fact that beraprost sodium had already been approved as a drug for human chronic artery obstruction and had already been marketed, and about the safety thereof. Further, giving first priority to the benefit of the patients and clients, conventional therapeutic methods were also combined appropriately for the individuals with progressed renal failure. Examples of the concomitant drugs employed include synthetic active carbons such as Covalzin, Kremezin and Nefguard; calcium preparations such as calcium carbonate; formula meals such as k/d and low-protein diets; and infusion solutions. However, in cases where there was a rational reason and consent by the owner was obtained, beraprost sodium alone was administered even to the individual with progressed renal failure. On the other hand, drugs thought to influence on the action of beraprost sodium, such as vasodilators (e.g., enalapril), diuretic (e.g., furosemide), drugs which influence on renal blood flow (e.g., dopamine) and steroids (e.g., prednisolone) were not used.
as §1

healthy cats = assay: Observation of general clinical symptoms (adverse events) after administration of beraprost sodium to healthy cats; assay type: in vivo, cat; parameters: key to grade of adverse events (diarrhea, vomiting, sedation) / grade of adverse events (vomiting, diarrhea, sedation): no abnormality observed (Grade 0); slight (Grade 1); moderate (Grade 2); severe (Grade 3); settings: for adverse events (clinical symptoms): 5 healthy cats
Method: In this study, 3 male cats and 2 female cats, totally 5 Japanese cats, aging 3 to 6 years old were used, which were raised in an animal hospital and for which no abnormalities were observed clinically and by blood test. The subject cats were individually placed in each cage in which each cat was allowed to take water ad libitum, and each cat was fed twice a day after measuring the necessary items. For the purpose of acclimatization, the cats were measured for blood pressure noninvasively twice a day for 2 weeks.
Observations of general clinical symptoms caused by administration of beraprost sodium to healthy cats were performed as follows: Whether adverse events such as ataxia, sedation, lying, suffusion of visible mucosa, lacrimation, hypersalivation, vomiting, diarrhea, incontinence and change in respiratory conditions were expressed or not was observed. Observation was performed before administration, and 30 minutes, 1 hour, 2 hours and 3 hours after each administration during the continuous 7 days in which the drug was administered every day. Each evaluation was performed by rating in 4 ranks as follows: Respiratory conditions were ranked into: no abnormality observed (Grade 0); accelerated respiration (Grade 1); hypopnea (Grade 2); and dyspnea (Grade 3). Ataxia was ranked into: no abnormality observed (Grade 0); slight (Grade 1); moderate (Grade 2); and abasia (Grade 3). Sedation (response to verbal contact) and lying (response to verbal contact) were ranked into: no abnormality observed (Grade 0); slight (Grade 1); moderate (Grade 2); and no response (Grade 3). Evaluations of lacrimation, hypersalivation, vomiting, diarrhea and incontinence were ranked into: no abnormality observed (Grade 0); slight (Grade 1); moderate (Grade 2); and severe (Grade 3).
In each administration series, the same cat was used in each administration series as the subject cat for the correctness of the evaluation of the test drug. To eliminate the influence of the test drug of the previous series, wash out period of 2 weeks were given after the termination of the respective series. In the beraprost sodium administration series and the placebo administration series, the solution-containing capsules prepared in Example 2 were used. Administration was performed orally at fasting twice a day at intervals of 12 hours for continuous 7 days.
Statistical analysis was carried out using a statistical software Stat View J-4.5 (Abacus Concepts). Since the parameter values before and after the administration to the same individual are compared, significant test was carried out by the paired t-test. In any of the cases, when the significance level was less than 5%, it was judged as significant.

[4] = test system: dog with chronic renal failure; assay: BUN and serum Cre in dog with chronic renal failure (Case-H); assay type: in vivo; settings: 150 μg/capsule oral twice a day alone
Method: The criteria and evaluation items for the cats and dogs with chronic renal failure are as follows: Diagnosis of uremia and chronic renal failure were performed totally taking clinical findings (including findings of uremia) and the results of the blood test, blood biochemical analysis and urinalysis into consideration. As the clinical findings of uremia, existence and degree of polydipsia and diuresis, dehydration, anorexia, weight loss, vomiting symptom and state of dehydration were observed. Existence of chronic renal failure was judged based on the serum Cre value as generally employed. As reference data for grasping the degree of progress of chronic renal failure, BUN value was also monitored.
In the blood test, RBC, WBC, PCV, Hg and PLT were measured. In the blood biochemical analysis, TP, Tcho, AST, ALT, ALP, Tbil, BUN, creatinine, calcium, inorganic phosphorus, glucose, sodium ion, potassium ion and chloride ion were measured. In the urinalysis, protein amount, pH, occult blood, bilirubin and glucose were measured. To eliminate the circadian rhythm and influence by meals on the values of blood biochemical markers, every blood collection was carried out in the morning before feeding (at fasting).
As a more specific criterion for chronic renal failure in cats and dogs in the present Examples, a serum Cre value of 1.4 mg/dL in the blood test was employed. Serum Cre value was measured by creatinine deaminase-amidohydrolase method, and the BUN value as reference data for grasping the degree of progress of chronic renal failure was measured by urease-GLDH method.
In view of this, after obtaining consent by the client, treatment with Covalzin was stopped, and switched to administration of beraprost sodium alone. Beraprost sodium was diluted with polyethylene glycol (Wako) to attain a dose of 150 μg/capsule, and was divided into capsules (size 5 Shionogi Qualicaps). Beraprost sodium was orally administered twice a day at fasting. […] In the above-described series of therapy, feeding of a formula meal and infusion were not performed at all.

[5] = test system: cats with chronic renal failure; assay: Blood biochemical analysis and urinalysis (BUN, serum Cre, glucose) in cats with chronic renal failure; assay type: in vivo, cat; settings: Case-G; for Cre: 40 μg/head/BID

For `CC#CC[C@@H](C)[C@H](O)/C=C/[C@@H]1[C@H]2c3cccc(CCCC(=O)[O-])c3O[C@H]2C[C@H]1O.[Na+]` (mixture of isomers) [beraprost sodium, Sodium rac-(1R,2R,3aS,8bS)-2,3,3a,8b-tetrahydro-2-hydroxy-1-[(E)-(3S,4RS)-3-hydroxy-4-methyloct-1-en-6-ynyl]-1H-cyclopenta[b][1]benzofuran-5-butanoate], the “renal function (creatinine clearance or reciprocal of serum creatinine)” value [1] is given as “reduced the decrease in renal function”, the urinary microalbumin [2] is given as “decreased” and the “Changes in Body Weight during Administration of Beraprost Sodium” value (shortened to “Changes”) (cats with renal failure; Case-A, age 5, month 0) is given as 5.2 kg. For the same compound, the “Changes” value (cats with renal failure; Case-A, month 1) was 5.5 kg, the “Changes” value (cats with renal failure; Case-A, month 2) was 5.5 kg and the “Changes” value (cats with renal failure; Case-A, month 3) was 5.5 kg. The “Changes” value (cats with renal failure; Case-A, month 4) was 5.7 kg, the “Changes” value (cats with renal failure; Case-A, month 5) was 5.7 kg and the “Changes” value (cats with renal failure; Case-A, month 6) was 6.0 kg. The “Changes” value (cats with renal failure; Case-B, age 4, month 0) was 3.5 kg, the “Changes” value (cats with renal failure; Case-B, month 1) was 3.6 kg and the “Changes” value (cats with renal failure; Case-B, month 2) was 3.6 kg. For the same compound, the “Changes” value (cats with renal failure; Case-B, month 3) was 3.7 kg, the “Changes” value (cats with renal failure; Case-B, month 4) was 3.9 kg and the “Changes” value (cats with renal failure; Case-B, month 5) was 4.0 kg. The “Changes” value (cats with renal failure; Case-B, month 6) was 4.0 kg, the body weight (cats with renal failure; Case-B, with amelioration of uremic symptoms) was “increased” and the “Changes” value (cats with renal failure; Case-C, age 16, month −1 (before administration)) was 2.8 kg. For the same compound, the “Changes” value (cats with renal failure; Case-C, month 0) was 2.7 kg, the “Changes” value (cats with renal failure; Case-C, month 1) was 2.8 kg and the “Changes” value (cats with renal failure; Case-C, month 2) was 2.9 kg. For the same compound, the “Changes” value (cats with renal failure; Case-C, month 3) was 2.9 kg, the “Changes” value (cats with renal failure; Case-C, month 4) was 2.9 kg and the “Changes” value (cats with renal failure; Case-C, month 5) was 3.0 kg. For the same compound, the “Changes” value (cats with renal failure; Case-C, month 6) was 3.0 kg, the “Changes” value (cats with renal failure; Case-D, age 17, month −1 (before administration)) was 4.5 kg and the body weight (cats with renal failure; Case-D, after one month) was “increased”. For the same compound, the “Changes” value (cats with renal failure; Case-D, month 0) was 4.5 kg, the “Changes” value (cats with renal failure; Case-D, month 1) was 4.5 kg and the “Changes” value (cats with renal failure; Case-D, month 2) was 4.9 kg. The “Changes” value (cats with renal failure; Case-D, month 3) was 4.9 kg, the “Changes” value (cats with renal failure; Case-D, month 4) was 4.9 kg and the “Changes” value (cats with renal failure; Case-D, month 5) was 4.9 kg. For the same compound, the “Changes” value (cats with renal failure; Case-E, age 14, combination therapy, month 0) was 3.5 kg, the “Changes” value (cats with renal failure; Case-E, combination therapy, month 1) was 3.8 kg and the “Changes” value (cats with renal failure; Case-E, combination therapy, month 2) was 3.7 kg. For the same compound, the “Changes” value (cats with renal failure; Case-E, combination therapy, month 3) was 3.6 kg, the “Changes” value (cats with renal failure; Case-E, combination therapy, month 4) was 3.7 kg and the “Changes” value (cats with renal failure; Case-E, combination therapy, month 5) was 3.7 kg. The “Changes” value (cats with renal failure; Case-E, combination therapy, month 6) was 3.6 kg, the “Changes” value (cats with renal failure; Case-F, age 11, combination therapy, month 0) was 4.7 kg and the “Changes” value (cats with renal failure; Case-F, combination therapy, month 1) was 5.0 kg. The “Changes” value (cats with renal failure; Case-F, combination therapy, month 2) was 5.0 kg, the “Changes” value (cats with renal failure; Case-F, combination therapy, month 3) was 5.5 kg and the “Changes” value (cats with renal failure; Case-F, combination therapy, month 4) was 5.5 kg. For the same compound, the “Changes” value (cats with renal failure; Case-F, combination therapy, month 5) was 5.7 kg, the “Changes” value (cats with renal failure; Case-F, combination therapy, month 6) was 5.8 kg and the body weight (cats with renal failure; Case-G, 40 μg/head/BID, Day 14) was 3.83 kg. The body weight (cats with renal failure; Case-G, 40 μg/head/BID, Day 56) was 3.95 kg, the body weight (cats with renal failure; Case-G, before the administration (baseline)) was 3.2 kg and the “adverse events such as diarrhea, vomiting” value ([3]; Case-A, 150 μg oral BID, 6 months) was “no adverse event”. For the same compound, the adverse events ([3]; Case-B, daily administration continued for 1 and half years) was “no adverse event has been observed at all”, the “adverse events such as diarrhea, vomiting” value ([3]; Case-C, 150 μg oral BID alone) was “no adverse event” and the “adverse events such as diarrhea, vomiting” value ([3]; Case-D, 150 μg oral BID alone) was “no adverse event”. The “adverse events such as diarrhea, vomiting” value ([3]; Case-E, 150 μg oral BID, combination therapy) was “no adverse event”, the “adverse events such as diarrhea, vomiting” value ([3]; Case-F, 150 μg oral BID, combination therapy) was “no adverse event” and the “adverse events such as diarrhea, vomiting” value ([3]; Case-G, 40 μg/head/BID) was “no adverse event”. For the same compound, the “adverse events (clinical symptoms)” value (healthy cats; 10 μg/kg/BID oral, 7 days) was “not observed at all”, the “adverse events (clinical symptoms)” value (healthy cats; 30 μg/kg/BID oral, 7 days) was “not observed at all” and the “grade of adverse events (diarrhea, vomiting, sedation)” value (healthy cats; 70 μg/kg/BID oral, 7 days) was “Grade 1”. The “cases with adverse events such as diarrhea, vomiting and sedation” value (healthy cats; 70 μg/kg/BID oral, 7 days, sporadic, 2 to 6 days after administration) was 2/5, the “time of occurrence of adverse events after the administration” value (healthy cats; 100 μg/kg/BID oral) was at most 2 h and the “grade of adverse events (vomiting, diarrhea, sedation)” value (healthy cats; 100 μg/kg/BID oral, 7 days) was “Grade 2”. The “cats with vomiting, diarrhea and sedation” value (healthy cats; 100 μg/kg/BID oral, 7 days, from Day 2, frequent) was “all cats”, the “reversibility of adverse events” value (healthy cats; 70 and 100 μg/kg/BID series, after 7 days) was “disappeared by the next day of the final administration” and the BUN [4] was “did not almost change”. The “serum Cre value” [4] was “continuously increased”, the BUN value ([5]; 40 μg/head/BID tablets alone) was “almost kept constant” and the Cre ([5]; Day 28) was 2.79 mg/dL. It also gave a Cre ([5]; Day 56) of 3.02 mg/dL.
